Measured values: article PMC6364417, “Kinase inhibitor library screening identifies synergistic drug combinations effective in sensitive and resistant melanoma cells” (Journal of Experimental & Clinical Cancer Research : CR, 2019)
Where two headings read alike, the source gives them in different places.

Columns and labels:
Test in all cases: Kinase inhibitor library screening, PrestoBlue cell viability, 1 or 10 μM, 72 h
501Mel cells (parental) = settings: for Cell viability in kinase inhibitor library screening, 501Mel Parental, 1μΜ / Cell viability in kinase inhibitor library screening, 501Mel Parental, 10μΜ: in %
Method in brief: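 Parental cells and Vemurafenib-resistant (XP) or Dabrafenib-resistant (GP) derivatives were treated with library kinase inhibitors at 1 and 10 μM for 72 h. Viability measured by PrestoBlue and expressed as % of untreated cells, at least in duplicate.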

[1] = tested on: 501Mel-GP cells (Dabrafenib-resistant); settings: for Cell viability in kinase inhibitor library screening, 501Mel GP, 1μΜ / Cell viability in kinase inhibitor library screening, 501Mel GP, 10μΜ: in %
[2] = tested on: 501Mel-XP cells (Vemurafenib-resistant); settings: for Cell viability in kinase inhibitor library screening, 501Mel XP, 1μΜ / Cell viability in kinase inhibitor library screening, 501Mel XP, 10μΜ: in %
A375 cells (parental) = tested on: A375 cells (parental)
[3] = tested on: A375-GP cells (Dabrafenib-resistant)
[4] = tested on: A375-XP cells (Vemurafenib-resistant)
IGR37 cells (parental) = tested on: IGR37 cells (parental)
[5] = tested on: IGR37-GP cells (Dabrafenib-resistant); settings: for Cell viability in kinase inhibitor library screening, IGR37 GP, 1μΜ: in %
[6] = tested on: IGR37-XP cells (Vemurafenib-resistant); settings: for Cell viability in kinase inhibitor library screening, IGR37 XP, 1μΜ: in %

CCCCCCCCCCCCc1ccc(S(=O)(=O)Nc2nncs2)cc1 [PHT-427]
cell viability (kinase inhibitor library screening) (501Mel cells (parental); 501Mel Parental, 1μΜ, 72 h): 99.9% | cell viability (kinase inhibitor library screening) (501Mel cells (parental); 501Mel Parental, 10μΜ, 72 h): 96.2% | cell viability (kinase inhibitor library screening) ([1]; 501Mel GP, 1μΜ, 72 h): 115.7% | cell viability (kinase inhibitor library screening) ([1]; 501Mel GP, 10μΜ, 72 h): 95.0% | cell viability (kinase inhibitor library screening) ([2]; 501Mel XP, 10μΜ, 72 h): 85.4% | cell viability (kinase inhibitor library screening) (A375 cells (parental); A375 Parental, 10μΜ, 72 h): 98.4% | cell viability (kinase inhibitor library screening) ([3]; A375 GP, 1μΜ, 72 h): 107.5% | cell viability (kinase inhibitor library screening) ([3]; A375 GP, 10μΜ, 72 h): 93.5% | cell viability (kinase inhibitor library screening) ([4]; A375 XP, 1μΜ, 72 h): 106.9% | cell viability (kinase inhibitor library screening) ([4]; A375 XP, 10μΜ, 72 h): 100.2% | cell viability (kinase inhibitor library screening) (IGR37 cells (parental); IGR37 Parental, 10μΜ, 72 h): 110.3% | cell viability (kinase inhibitor library screening) ([5]; IGR37 GP, 1μΜ, 72 h): 95.0% | cell viability (kinase inhibitor library screening) ([5]; IGR37 GP, 10μΜ, 72 h): 98.8% | cell viability (kinase inhibitor library screening) ([6]; IGR37 XP, 10μΜ, 72 h): 79.8%

Oc1cccc(-c2nc(N3CCOCC3)c3oc4ncccc4c3n2)c1 [PI-103]
viability at 1 µM (501Mel cells (parental); Homo sapiens, 72 h, read-out: cell viability, 501Mel Parental, 1μΜ): 36.3% | viability at 10 µM (501Mel cells (parental); Homo sapiens, 72 h, read-out: cell viability, 501Mel Parental, 10μΜ): 1.1% | viability at 1 µM ([1]; Homo sapiens, 72 h, read-out: cell viability, 501Mel GP, 1μΜ): 20% | viability at 10 µM ([1]; Homo sapiens, 72 h, read-out: cell viability, 501Mel GP, 10μΜ): 3.4% | viability at 1 µM ([2]; Homo sapiens, 72 h, read-out: cell viability, 501Mel XP, 1μΜ): 13.4% | viability at 10 µM ([2]; Homo sapiens, 72 h, read-out: cell viability, 501Mel XP, 10μΜ): -0.0754% | viability at 1 µM (A375 cells (parental); Homo sapiens, A-375, 72 h, read-out: cell viability, A375 Parental, 1μΜ): 61.4% | viability at 10 µM (A375 cells (parental); Homo sapiens, A-375, 72 h, read-out: cell viability, A375 Parental, 10μΜ): 24.2% | viability at 1 µM ([3]; Homo sapiens, A-375, 72 h, read-out: cell viability, A375 GP, 1μΜ): 55.6% | viability at 10 µM ([3]; Homo sapiens, A-375, 72 h, read-out: cell viability, A375 GP, 10μΜ): 20.2% | viability at 1 µM ([4]; Homo sapiens, A-375, 72 h, read-out: cell viability, A375 XP, 1μΜ): 49.4% | viability at 10 µM ([4]; Homo sapiens, A-375, 72 h, read-out: cell viability, A375 XP, 10μΜ): 20.8% | viability at 1 µM (IGR37 cells (parental); Homo sapiens, IGR-37, 72 h, read-out: cell viability, IGR37 Parental, 1μΜ): 76.3% | viability at 10 µM (IGR37 cells (parental); Homo sapiens, IGR-37, 72 h, read-out: cell viability, IGR37 Parental, 10μΜ): 10.6% | viability at 1 µM ([5]; Homo sapiens, IGR-37, 72 h, read-out: cell viability, IGR37 GP, 1μΜ): 87.6% | viability at 10 µM ([5]; Homo sapiens, IGR-37, 72 h, read-out: cell viability, IGR37 GP, 10μΜ): 3.8% | viability at 1 µM ([6]; Homo sapiens, IGR-37, 72 h, read-out: cell viability, IGR37 XP, 1μΜ): 80.5% | viability at 10 µM ([6]; Homo sapiens, IGR-37, 72 h, read-out: cell viability, IGR37 XP, 10μΜ): 0.328%

COc1ccc2c(c1OC)N=C(NC(=O)c1cccnc1)N1CCN=C21 [PIK-90]
Cell viability in kinase inhibitor library screening, 501Mel Parental, 1μΜ (501Mel cells (parental); 501Mel Parental, 1μΜ, 72 h): 97.1 | Cell viability in kinase inhibitor library screening, 501Mel Parental, 10μΜ (501Mel cells (parental); 501Mel Parental, 10μΜ, 72 h): 71.7 | Cell viability in kinase inhibitor library screening, 501Mel GP, 1μΜ ([1]; 501Mel GP, 1μΜ, 72 h): 98.4 | Cell viability in kinase inhibitor library screening, 501Mel GP, 10μΜ ([1]; 501Mel GP, 10μΜ, 72 h): 50.5 | Cell viability in kinase inhibitor library screening, 501Mel XP, 1μΜ ([2]; 501Mel XP, 1μΜ, 72 h): 85.8 | Cell viability in kinase inhibitor library screening, 501Mel XP, 10μΜ ([2]; 501Mel XP, 10μΜ, 72 h): 43.2 | Cell viability in kinase inhibitor library screening, A375 Parental, 10μΜ (A375 cells (parental); A375 Parental, 10μΜ, 72 h): 58.0 | Cell viability in kinase inhibitor library screening, A375 Parental, 1μΜ (A375 cells (parental); A375 Parental, 1μΜ, 72 h): 94.8 | Cell viability in kinase inhibitor library screening, A375 GP, 1μΜ ([3]; A375 GP, 1μΜ, 72 h): 90.1 | Cell viability in kinase inhibitor library screening, A375 GP, 10μΜ ([3]; A375 GP, 10μΜ, 72 h): 52.7 | Cell viability in kinase inhibitor library screening, A375 XP, 1μΜ ([4]; A375 XP, 1μΜ, 72 h): 91.5 | Cell viability in kinase inhibitor library screening, A375 XP, 10μΜ ([4]; A375 XP, 10μΜ, 72 h): 58.7 | Cell viability in kinase inhibitor library screening, IGR37 Parental, 10μΜ (IGR37 cells (parental); IGR37 Parental, 10μΜ, 72 h, in %): 82.3 | Cell viability in kinase inhibitor library screening, IGR37 GP, 10μΜ ([5]; IGR37 GP, 10μΜ, 72 h): 60.2% | Cell viability in kinase inhibitor library screening, IGR37 GP, 1μΜ ([5]; IGR37 GP, 1μΜ, 72 h): 89.1 | Cell viability in kinase inhibitor library screening, IGR37 XP, 10μΜ ([6]; IGR37 XP, 10μΜ, 72 h): 19.4% | Cell viability in kinase inhibitor library screening, IGR37 XP, 1μΜ ([6]; IGR37 XP, 1μΜ, 72 h): 85.5

CC(=O)Nc1nc(C)c(-c2ccc(Cl)c(S(=O)(=O)NCCO)c2)s1 [PIK-93]
Cell viability in kinase inhibitor library screening, 501Mel Parental, 1μΜ (501Mel cells (parental)): 88.1 | Cell viability in kinase inhibitor library screening, 501Mel Parental, 10μΜ (501Mel cells (parental)): 25.0 | Cell viability in kinase inhibitor library screening, 501Mel GP, 1μΜ [1]: 98.2 | Cell viability in kinase inhibitor library screening, 501Mel GP, 10μΜ [1]: 25.1 | Cell viability in kinase inhibitor library screening, 501Mel XP, 1μΜ [2]: 90.7 | Cell viability in kinase inhibitor library screening, 501Mel XP, 10μΜ [2]: 10.6 | Cell viability in kinase inhibitor library screening, A375 Parental, 1μΜ (A375 cells (parental)): 97.3 | Cell viability in kinase inhibitor library screening, A375 Parental, 10μΜ (A375 cells (parental)): 47.7 | Cell viability in kinase inhibitor library screening, A375 GP, 1μΜ [3]: 97.8 | Cell viability in kinase inhibitor library screening, A375 GP, 10μΜ [3]: 37.8 | Cell viability in kinase inhibitor library screening, A375 XP, 1μΜ [4]: 88.7 | Cell viability in kinase inhibitor library screening, A375 XP, 10μΜ [4]: 36.0 | Cell viability in kinase inhibitor library screening, IGR37 Parental, 1μΜ (IGR37 cells (parental); in %): 96.9 | Cell viability in kinase inhibitor library screening, IGR37 Parental, 10μΜ (IGR37 cells (parental); in %): 72.6 | Cell viability in kinase inhibitor library screening, IGR37 GP, 10μΜ [5]: 59.9% | Cell viability in kinase inhibitor library screening, IGR37 GP, 1μΜ [5]: 91.0 | Cell viability in kinase inhibitor library screening, IGR37 XP, 10μΜ [6]: 27.5% | Cell viability in kinase inhibitor library screening, IGR37 XP, 1μΜ [6]: 84.1
